Measured values from publication doi:10.1101/2024.04.10.588849v1 (biorxiv, 2024).

Target: T1, recombinant human MPST (3-mercaptopyruvate sulfurtransferase) (Homo sapiens, UniProt P25325)
T1 sequence (P25325 1-317 isoform P25325-2): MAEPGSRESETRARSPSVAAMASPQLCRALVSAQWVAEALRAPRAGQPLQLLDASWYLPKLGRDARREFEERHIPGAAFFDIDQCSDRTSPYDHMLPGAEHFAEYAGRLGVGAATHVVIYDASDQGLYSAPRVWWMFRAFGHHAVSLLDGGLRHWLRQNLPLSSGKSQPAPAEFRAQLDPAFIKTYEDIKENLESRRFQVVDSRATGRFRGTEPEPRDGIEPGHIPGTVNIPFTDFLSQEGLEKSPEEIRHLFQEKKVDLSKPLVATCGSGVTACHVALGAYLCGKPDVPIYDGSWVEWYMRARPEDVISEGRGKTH
Test: isothermal titration calorimetry
Assay type: binding

Kd: 3.2 µM
Compound: C[N+](C)(C)[C@@H](Cc1c[nH]c(=S)[nH]1)C(=O)[O-] [ergothioneine]
